Values joined by “and” are separate entries in the source; they are usually repeats but may differ in a detail not shown here. Equal values may be shown once. Read-outs that look alike come from different tables or passages of the source.
Biological target: T1, CETP (Homo sapiens, UniProt P11597)
T1 construct: from tissue; host or cells: human plasma from normal volunteers
T1 sequence (P11597 18-493): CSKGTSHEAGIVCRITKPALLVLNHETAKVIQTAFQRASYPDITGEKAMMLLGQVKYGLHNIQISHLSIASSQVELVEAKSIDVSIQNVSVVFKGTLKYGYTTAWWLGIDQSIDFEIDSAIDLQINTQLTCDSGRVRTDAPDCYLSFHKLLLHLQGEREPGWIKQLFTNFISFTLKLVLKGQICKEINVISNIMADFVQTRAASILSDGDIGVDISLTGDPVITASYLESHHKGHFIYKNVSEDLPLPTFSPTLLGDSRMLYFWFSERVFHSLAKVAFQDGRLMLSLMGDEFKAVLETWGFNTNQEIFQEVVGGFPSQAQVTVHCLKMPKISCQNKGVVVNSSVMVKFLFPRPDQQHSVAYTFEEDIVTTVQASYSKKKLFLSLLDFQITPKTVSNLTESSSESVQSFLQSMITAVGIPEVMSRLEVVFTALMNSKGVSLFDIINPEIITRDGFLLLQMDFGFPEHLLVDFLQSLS
Experiment: CETP in vitro assay (Amersham kit TRKQ7005; modified protocol in human plasma, [3H]CE-HDL transfer)
Format: biochemical
Settings: for IC50: from plots of % control versus compound concentration
Experimental: The CETP inhibitory activity of the compounds was determined using a commercially available kit from Amersham Biosciences (Catalog #TRKQ7005).
Briefly, 80 μl of human plasma (obtained from normal volunteers), approximately 25 μg/ml (20 μl) of [^3H]CE-HDL (Amersham Biosciences from kit TRKQ7005) and 1 μl of compound dissolved in DMSO was incubated for at least 4 hrs at 37° C. and non-specific transfer was determined by incubating a corresponding plate at 4° C. (blank). After the incubation period, 10 μl of a solution of 1% Dextralip 50/0.5M MgCl2, pH 7.4 was added, vortexed and incubated at room temperature for 10 min. The plate was then centrifuged for 30 min at 10° C. at 300 rpm in a Sorvall RT6000B centrifuge. Fifty microliters of the supernatant was transferred to a Picoplate (Packard) containing 100 μl of Microscint 40 (Perkin Elmer) and mixed for 30 min using a plate mixer. The radioactivity was counted using a TopCount (Perkin Elmer) and the % control was determined in the samples using the following formula: % transfer relative to vehicle controls (% control)=[cpm blank−cpm test]/cpm blank/cpm control]×100. IC50s were calculated from plots of the % control versus compound concentration.

[1] = 1 μM compound, read-out: % Inhibition @ 1 μM

% Inhibition @ 1 μM (1 μM compound)	inhibition at 1 µM [1] [%]	IC50	SMILES	inhibition at 1 µM (read-out: % Inhibition @ 1 μM, 1 μM compound) [%]
43% and 55%	54	84 nM and 202 nM	OC(CN1c2cccc(-c3cccc(OC(F)(F)F)c3)c2CCC1c1cccc(C(F)(F)F)c1)C(F)(F)F (stereo not shown) [Compound 17, 1,1,1-Trifluoro-3-[5-(3-trifluoromethoxy-phenyl)-2-(3-trifluoromethyl-phenyl)-3,4-dihydro-2H-quinolin-1-yl]-propan-2-ol]	
2%			OC(CN1c2cccc(-c3cccc(OC(F)(F)F)c3)c2CCC1C1CCCCC1)C(F)(F)F (stereo not shown) [Compound 38, 3-[2-Cyclohexyl-5-(3-trifluoromethoxy-phenyl)-3,4-dihydro-2H-quinolin-1-yl]-1,1,1-trifluoro-propan-2-ol]	
60% and 65%		181 nM and 374 nM	CC(C)c1cccc(-c2cccc3c2CCC(c2cccc(OC(F)(F)C(F)F)c2)N3CC(O)C(F)(F)F)c1 (stereo not shown) [Compound 66, 1,1,1-Trifluoro-3-{5-(3-isopropyl-phenyl)-2-[3-(1,1,2,2-tetrafluoro-ethoxy)-phenyl]-3,4-dihydro-2H-quinolin-1-yl}-propan-2-ol]	
50% and 26%			COc1cccc(-c2cccc3c2CCC(c2cccc(OC(F)(F)C(F)F)c2)N3CC(O)C(F)(F)F)c1 (stereo not shown) [Compound 73, 1,1,1-Trifluoro-3-{5-(3-methoxy-phenyl)-2-[3-(1,1,2,2-tetrafluoro-ethoxy)-phenyl]-3,4-dihydro-2H-quinolin-1-yl}-propan-2-ol]	
77% and 72% and 67% and 66% and 62%		150 nM and 100 nM	OC(CN1c2cccc(-c3cccc(OC(F)(F)F)c3)c2CCC1c1cccc(OC(F)(F)F)c1)C(F)(F)F (stereo not shown) [Compound 31, 3-[2,5-Bis-(3-trifluoromethoxy-phenyl)-3,4-dihydro-2H-quinolin-1-yl]-1,1,1-trifluoro-propan-2-ol]	
41% and 64%			OC(CN1c2cccc(-c3cccc(F)c3)c2CCC1c1cccc(OC(F)(F)C(F)F)c1)C(F)(F)F (stereo not shown) [Compound 12, 1,1,1-Trifluoro-3-{5-(3-fluoro-phenyl)-2-[3-(1,1,2,2-tetrafluoro-ethoxy)-phenyl]-3,4-dihydro-2H-quinolin-1-yl}-propan-2-ol]	
86%		450 nM and 150 nM	OC(CN1c2cccc(-c3cccc(OC(F)(F)F)c3)c2CCC1c1cccc(OC(F)(F)C(F)F)c1)C(F)(F)F (single isomer, unassigned) [Compound 2, 1,1,1-Trifluoro-3-[2-[3-(1,1,2,2-tetrafluoro-ethoxy)-phenyl]-5-(3-trifluoromethoxy-phenyl)-3,4-dihydro-2H-quinolin-1-yl]-propan-2-ol]	
59% and 74%		582 nM	COc1cccc(C2CCc3c(-c4cccc(OC(F)(F)F)c4)cccc3N2CC(O)C(F)(F)F)c1 (stereo not shown) [Compound 25, 1,1,1-Trifluoro-3-[2-(3-methoxy-phenyl)-5-(3-trifluoromethoxy-phenyl)-3,4-dihydro-2H-quinolin-1-yl]-propan-2-ol]	
69% and 59%	61	63 nM and 39 nM	C[C@@H](O)CN1c2cccc(-c3cccc(OC(F)(F)F)c3)c2CC[C@@H]1c1cccc(OC(F)(F)C(F)F)c1 [Compound 70, (αR,2R)-3,4-Dihydro-α-methyl-2-[3-(1,1,2,2-tetrafluoroethoxy)phenyl]-5-[3-(trifluoromethoxy)phenyl]-1(2H)-quinolineethanol]	
13%			OC(CF)CN1c2cccc(-c3cccc(OC(F)(F)F)c3)c2CCC1c1cccc(OC(F)(F)F)c1 (stereo not shown) [Compound 50, 1-[2,5-Bis-(3-trifluoromethoxy-phenyl)-3,4-dihydro-2H-quinolin-1-yl]-3-fluoro-propan-2-ol]	
12%			OC(CN1c2cccc(-c3cccc(OC(F)(F)F)c3)c2CCC1c1cccs1)C(F)(F)F (stereo not shown) [Compound 34, 1,1,1-Trifluoro-3-[2-thiophen-2-yl-5-(3-trifluoromethoxy-phenyl)-3,4-dihydro-2H-quinolin-1-yl]-propan-2-ol]	
	5		COc1cccc(-c2cccc3c2CC[C@@H](c2cccc(OC(F)(F)F)c2)N3C[C@@H](C)O)c1 [Compound 60]	
98%	100	140 nM and 160 nM	COc1cccc(-c2cccc3c2CC[C@H](c2cccc(OC(F)(F)C(F)F)c2)N3C[C@H](O)C(F)(F)F)c1 [Compound 83]	
	30		C[C@H](O)CN1c2cccc(-c3cccc(OC(F)(F)F)c3)c2CC[C@H]1c1cccc(OC(F)(F)C(F)F)c1 [Compound 62]	
43% and 45%			CCC1CCc2c(-c3cccc(OC(F)(F)F)c3)cccc2N1CC(O)C(F)(F)F (stereo not shown) [Compound 35, 3-[2-Ethyl-5-(3-trifluoromethoxy-phenyl)-3,4-dihydro-2H-quinolin-1-yl]-1,1,1-trifluoro-propan-2-ol]	
	0		O=C(CN1CCOCC1)N1c2cccc(-c3cccc(OC(F)(F)F)c3)c2CCC1c1cccc(OC(F)(F)F)c1 (stereo not shown) [Compound 88, 1-[2,5-Bis-(3-trifluoromethoxy-phenyl)-3,4-dihydro-2H-quinolin-1-yl]-2-morpholin-4-yl-ethanone]	
37%			OC(CN1c2cccc(-c3cccc(C(F)(F)F)c3)c2CCC1c1cccc(OC(F)(F)C(F)F)c1)C(F)(F)F (stereo not shown) [Compound 14]	
60% and 66%		380 nM and 255 nM	OC(CN1c2cccc(-c3cccs3)c2CCC1c1cccc(OC(F)(F)C(F)F)c1)C(F)(F)F (stereo not shown) [Compound 74, 1,1,1-Trifluoro-3-{2-[3-(1,1,2,2-tetrafluoro-ethoxy)-phenyl]-5-thiophen-2-yl-3,4-dihydro-2H-quinolin-1-yl}-propan-2-ol]	
	0		C[C@H](O)CN1c2cccc(-c3cccc(OC(F)(F)F)c3)c2CC[C@@H]1c1cccc(OC(F)(F)C(F)F)c1 [Compound 61]	
40% and 35%		2900 nM	OC(CN1c2cccc(-c3cccc(OC(F)(F)F)c3)c2CCC1c1cccc(C(F)(F)F)c1)C(F)(F)F (stereo not shown) [Compound 18, 1,1,1-Trifluoro-3-[5-(3-trifluoromethoxy-phenyl)-2-(3-trifluoromethyl-phenyl)-3,4-dihydro-2H-quinolin-1-yl]-propan-2-ol]	
42%			Cc1cc(-c2cccc3c2CCC(c2cccc(OC(F)(F)C(F)F)c2)N3CC(O)C(F)(F)F)ccc1Cl (stereo not shown) [Compound 6, 3-{5-(4-Chloro-3-methyl-phenyl)-2-[3-(1,1,2,2-tetrafluoro-ethoxy)-phenyl]-3,4-dihydro-2H-quinolin-1-yl}-1,1,1-trifluoro-propan-2-ol]	
0%			OC(CCl)CN1c2cccc(-c3cccc(OC(F)(F)F)c3)c2CCC1c1cccc(OC(F)(F)F)c1 (stereo not shown) [Compound 48, 1-[2,5-Bis-(3-trifluoromethoxy-phenyl)-3,4-dihydro-2H-quinolin-1-yl]-3-chloro-propan-2-ol]	

SMILES	% Inhibition @ 1 μM (1 μM compound)	inhibition at 1 µM [1] [%]	IC50	inhibition at 1 µM (read-out: % Inhibition @ 1 μM, 1 μM compound) [%]
OC(CN1c2cccc(-c3cccc(Cl)c3)c2CCC1c1cccc(OC(F)(F)C(F)F)c1)C(F)(F)F (stereo not shown) [Compound 15, 3-{5-(3-Chloro-phenyl)-2-[3-(1,1,2,2-tetrafluoro-ethoxy)-phenyl]-3,4-dihydro-2H-quinolin-1-yl}-1,1,1-trifluoro-propan-2-ol]	66%		68 nM and 59 nM	68
